Patent US20100172854A1, “ANTIBACTERIAL FORMULATIONS” (priority 2007, published 2010)
Converted amounts (≈) assume the structure as drawn.

How the values were obtained:
Format in all cases: cell-based
[1] = tested on: Streptococcus mutans ATCC 35668; assay: MBC assay
Protocol: (§1) The S. mutans strains were cultured and maintained on Wilkins-Chalgren Anaerobe Medium (agar and broth) at pH 7.0 supplemented with 1 g/L glucose; all cultures were incubated at 37° C. for 48 h in an atmosphere containing 5% CO2.
(§2) This assay, normally carried out after an MIC assay, determines the minimum concentration of a compound that is lethal to the micro-organism being tested.
(§3) These samples were then individually sub-cultured on antibiotic-free agar medium, under the incubation conditions described above. Following incubation they were examined visually for microbial growth.

[2] = tested on: Streptococcus mutans ATCC 25175; assay: MBC assay
Protocol: as §1, §2, §3

[3] = tested on: Staphylococcus simulans ATCC 27848; assay: MIC assay; conditions: ATCC27848
Protocol: (§4) The staphylococci were cultured and maintained on Mueller-Hinton Medium (agar and broth) at pH 7.2; cultures were incubated aerobically at 37° C. for 19-20 hours.
(§5) This is a standard international method for quantitatively assessing the antimicrobial activity of a compound in a liquid medium. The method used a sterile 96-well microtitre plate, capable of holding about 200 μl of liquid per well. The wells contained liquid culture medium and ranges of decreasing concentrations of the relevant test compound in doubling dilutions (e.g. 1000, 500, 250, 125 . . . μg/ml, etc. down to 0.49 μg/ml). The culture media were as described above.
(§6) The wells were inoculated with a liquid suspension of freshly grown micro-organism and incubated under the conditions described above. After incubation, the microtitre plate was examined visually (with the aid of a light box) for cloudiness in each well, which would indicate microbial growth. The MIC value was recorded as the lowest concentration of test compound required to inhibit microbial growth, i.e. the lowest concentration for which the liquid in the well remained clear.
(§7) The assays included both negative (culture medium with no micro-organisms) and positive (culture medium plus diluting solvent plus micro-organism) controls.

S. aureus ATCC 12601 = assay: MIC assay; conditions: Staphylococcus aureus, ATCC12601
Protocol: as §4, §5, §6, §7

S. aureus ATCC 12605 = assay: MIC assay; conditions: Staphylococcus aureus, ATCC12605
Protocol: as §4, §5, §6, §7

S. aureus CPHL EMRSA 17 = assay: MIC assay; conditions: Staphylococcus aureus
Protocol: as §4, §5, §6, §7

S. aureus CPHL EMRSA 15 = assay: MIC assay; conditions: Staphylococcus aureus
Protocol: as §4, §5, §6, §7

[4] = tested on: S. aureus CPHL GISA HO41340156; assay: MIC assay; conditions: Staphylococcus aureus
Protocol: as §4, §5, §6, §7

S. aureus CPHL EMRSA 16 = assay: MIC assay; conditions: Staphylococcus aureus
Protocol: as §4, §5, §6, §7

S. aureus ATCC 12606 = assay: MIC assay; conditions: Staphylococcus aureus, ATCC12606
Protocol: as §4, §5, §6, §7

[5] = tested on: S. epidermidis NCTC 11047; assay: MIC assay; conditions: Staphylococcus epidermidis, NCTC11047
Protocol: as §4, §5, §6, §7

[6] = tested on: S. saprophyticus NCTC 7292; assay: MIC assay; conditions: Staphylococcus saprophyticus, NCTC7292
Protocol: as §4, §5, §6, §7

[7] = tested on: Staphylococcus xylosus ATCC 29971; assay: MIC assay; conditions: ATCC29971
Protocol: as §4, §5, §6, §7

S. aureus ATCC 12607 = assay: MIC assay; conditions: Staphylococcus aureus, ATCC12607
Protocol: as §4, §5, §6, §7

[8] = tested on: Staphylococcus haemolyticus ATCC 29970; assay: MIC assay; conditions: ATCC29970
Protocol: as §4, §5, §6, §7

[9] = tested on: Staphylococcus hominis ATCC 27844; assay: MIC assay; conditions: ATCC27844
Protocol: as §4, §5, §6, §7

S. aureus CPHL VISA Mu50 = assay: MIC assay; conditions: Staphylococcus aureus, resistance phenotype Van (intermediate)
Protocol: as §4, §5, §6, §7

S. aureus ATCC 12604 = assay: MIC assay; conditions: Staphylococcus aureus, ATCC12604
Protocol: as §4, §5, §6, §7

[10] = tested on: Propionibacterium acnes NCTC 737; assay: MIC assay; conditions: Cutibacterium acnes, NCTC737; P. acnes NCTC 737
Protocol: The propionibacteria were cultured and maintained on Wilkins-Chalgren Anaerobe Medium (agar and broth) at pH 6.0; all cultures were incubated anaerobically at 37° C. for 72 hours.
as §5, §6, §7

[11] = tested on: Actinomyces naeslundii ATCC 12104; assay: MIC assay
Protocol: as §5, §6, §7

[12] = tested on: Enterococcus faecalis ATCC 29212; assay: MIC assay; conditions: Enterococcus faecalis, ATCC29212
Protocol: as §5, §6, §7

[13] = tested on: Streptococcus pyogenes ATCC 12344; assay: MIC assay; conditions: ATCC12344; Streptococcus pyogenes ATCC 12344
Protocol: as §5, §6, §7

[14] = tested on: Gardnerella vaginalis ATCC 14018; assay: MIC assay; conditions: ATCC14018
Protocol: as §5, §6, §7

[15] = tested on: Clostridium difficile ATCC 7000057; assay: MIC assay; conditions: Clostridioides difficile, ATCC7000057
Protocol: as §5, §6, §7

[16] = tested on: Clostridium sporogenes ATCC 3584; assay: MIC assay; conditions: ATCC3584
Protocol: as §5, §6, §7

[17] = tested on: Corynebacterium mucifaciens ATCC 700355; assay: MIC assay; conditions: Corynebacterium mucifaciens, ATCC700355
Protocol: as §5, §6, §7

[18] = tested on: Listeria monocytogenes ATCC 15313; assay: MIC assay
Protocol: as §5, §6, §7

[19] = tested on: Prevotella nigrescens ATCC 33563; assay: MIC assay; conditions: ATCC33563
Protocol: as §5, §6, §7

[20] = tested on: Bacillus cereus ATCC 11778; assay: MIC assay
Protocol: as §5, §6, §7

[21] = tested on: Streptococcus sobrinus ATCC 33478; assay: MIC assay; conditions: ATCC33478
Protocol: as §5, §6, §7

What does the source list for `Cc1cc(Cc2cc(C)cc(C(C)(C)C)c2O)c(O)c(C(C)(C)C)c1` [AO 2246, 2,2′-methylene-bis(4-methyl-6-tert-butylphenol)]?
MIC/MBC Ratio [1]: 0.25; MBC ([1]; ATCC35668): 31.2 µg/mL (≈ 91.8 µM); MIC/MBC Ratio [2]: 0.5; MBC ([2]; ATCC25175): 62.5 µg/mL (≈ 184 µM); MIC [3]: 15.6 µg/mL (≈ 45.8 µM); MIC (S. aureus ATCC 12601): 1.95 µg/mL (≈ 5.73 µM); MIC (S. aureus ATCC 12605): 1.95 µg/mL (≈ 5.73 µM); MIC (S. aureus CPHL EMRSA 17): 1.95 µg/mL (≈ 5.73 µM); MIC (S. aureus CPHL EMRSA 15): 1.95 µg/mL (≈ 5.73 µM); MIC [4]: 1.95 µg/mL (≈ 5.73 µM); MIC (S. aureus CPHL EMRSA 16): 1.95 µg/mL (≈ 5.73 µM); MIC (S. aureus ATCC 12606): 1.95 µg/mL (≈ 5.73 µM); MIC [5]: 3.9 µg/mL (≈ 11.5 µM); MIC [6]: 3.9 µg/mL (≈ 11.5 µM); MIC [7]: 3.9 µg/mL (≈ 11.5 µM); MIC (S. aureus ATCC 12607): 1.95 µg/mL (≈ 5.73 µM); MIC [8]: 3.9 µg/mL (≈ 11.5 µM); MIC [9]: 7.8 µg/mL (≈ 22.9 µM); MIC (S. aureus CPHL VISA Mu50): 0.98 µg/mL (≈ 2.88 µM); MIC (S. aureus ATCC 12604): 1.95 µg/mL (≈ 5.73 µM); MIC [10]: 3.9 µg/mL (≈ 11.5 µM); MIC [11]: 1.95 µg/mL (≈ 5.73 µM); MIC [12]: 1.95 µg/mL (≈ 5.73 µM); MIC [13]: 0.98 µg/mL (≈ 2.88 µM); MIC [14]: 15.6 µg/mL (≈ 45.8 µM); MIC [15]: 3.9 µg/mL (≈ 11.5 µM); MIC [16]: 3.9 µg/mL (≈ 11.5 µM); MIC [17]: 1.95 µg/mL (≈ 5.73 µM); MIC [18]: 1.95 µg/mL (≈ 5.73 µM); MIC [19]: 7.8 µg/mL (≈ 22.9 µM); MIC [20]: 1.95 µg/mL (≈ 5.73 µM); MIC [21]: 15.6 µg/mL (≈ 45.8 µM)
